The values below come from patent publication US5776685A, “Protein kinase C assay” (Joslin Diabetes Center, priority 1996, dated 1998).

In one assay the test system is bovine PKC alpha. The assay can be described thus: PKC catalytic activity in vitro (phosphorylation of [ser25]PKC19-31 in detergent cell extracts). The note with it: for inhibition of PKC alpha catalytic activity / activation of PKC alpha in vitro: PKC alpha expressed in yeast; for PMA and Ca^2+ stimulated mutant PKC activity: Ca^2+: Ca^2+ stimulation of in vitro catalytic activity; for PMA and Ca^2+ stimulated mutant PKC activity: PMA: PMA stimulation, common symbol for in vitro catalytic activity and PMA-mediated increase of cell doubling time; for PMA and Ca^2+ stimulated mutant PKC activity: -: no stimulus (basal), common symbol for in vitro catalytic activity and cell doubling time response. The assay is classed as biochemical. On the procedure:
FIG. 4 is a graph which compares PKC mutant and wild type catalytic activities in vitro. […] Catalytic activity was stimulated by combinations of phosphatidylserine (PS), the phorbol ester PMA and calcium ions (Ca^2+). PS, open; PMA+PS, solid; Ca^2+ +PS, diagonally striped.
Cell lysis. About 6×10^8 expressing cells were washed in PBS and were resuspended in 1 ml lysis buffer containing 1% Triton X100, 50 mM Hepes pH 7.4, 15-mM NaC1, 5 mM EDTA, 5 mM EGTA, 10 μg/ml pepstatin, 40 μg/ml leupeptin, 10 μg/ml aprotinin and 200 μg/ml PMSF. Cell suspensions mixed with the same volume of acid washed glass beads (450-500 μm) were lysed mechanically by six 30 second vortexing steps interrupted by cooling on ice for at least 30 second in 50 ml screw cap polypropylene tubes. The lysate was cleared by 4,000 g centrifugation for 15 minutes at 4 degrees C and stored at […] for up to several weeks.
PKC catalytic activity. […] Phosphatidylserine in chloroform, with or without PMA was evaporated under N2 to dryness, resuspended in 20 mM Tris pH 7.5, mixed and sonicated at 4 degrees C for 45 seconds before use. To terminate the reaction the sample was placed on phosphocellulose paper (Whatman P81) which was repeatedly washed in 75 mM phosphoric acid. Bound radioactivity was determined by liquid scintillation spectroscopy.

Assay [1] relates to Saccharomyces cerevisiae strain 334 expressing bovine PKC alpha. The assay is described as follows: Cell doubling time of yeast cultures expressing PKC alpha wild type and mutant cDNAs. It counts as cell-based. The conditions noted are these: wild-type yeast cells without mammalian PKC, 1 μM PMA. On the procedure:
FIG. 2 is a graph of cell doubling time of yeast cultures expressing PKC alpha wild type and mutant cDNAs. Freshly saturated cultures expressing control plasmids (Cont.), normal PKC alpha (PKCa) or deletion mutants D172-225, ND153 or CD26 were diluted to low cell densities. Cell growth was followed on a roller at 30 degrees C to measurable cell densities of the logarithmic growth phase at 0.2-0.6 O.D. 600. […] Average doubling times were calculated.
Yeast strains and culture conditions. PKC expression plasmids and YEp51 or YEp52 as controls were introduced into Saccharomyces cerevisiae strain 334 [MAT alpha, pep 4-3, prb1-122, ura 3-52; leu2-3, 112, reg1-501, gal1]by lithium acetate transformation See e.g., Ito et al. 1983, J. Bacterial. 153: 163. Cells were routinely grown at 30 degrees C on a culture roller or shaker in liquid culture or on 1.5% agar plates. The synthetic medium contained 2% glucose and was leucine-free to select for stable propagation of the expression plasmids. Expressing yeast colonies were identified phenotypically by replica plating on medium containing or lacking PMA. Phenol extracts of crude cell lysates were prepared to re-transform Escherichia coli DH5 alpha. PKC mutants were characterized by DNA sequencing and defined plasmids were re-introduces into S. cerevisiae 334. These strains were used in all experiments shown. 50 ml cultures were routinely inoculated from freshly saturated cultures and grown for 16 h to an optical density of 0.4 at O.D.600.
Cell doubling times were measured by O.D.600 reading of liquid cultures in the presence of 2% galactose as shown in FIG. 2 to test whether they correlate with the specific phenotypes (colony size) caused by normal mutant PKC alpha. […] A normal 4 hours doubling time was measured for all constructs in the absence of galactose.

As for `CC1CNCCN1S(=O)(=O)c1cccc2cnccc12` (racemic) [H-7, reference compound], the “inhibition of PKC alpha catalytic activity” value (shortened to “inhibition”) in the assay with bovine PKC alpha is “efficiently inhibited”.

For `CC(C)[C@H]1C(=O)N[C@H](CO)Cc2c[nH]c3cccc(c23)N1C` [(-)-indolactam V, reference compound], the “activation of PKC alpha in vitro” value in the assay with bovine PKC alpha is reported as “efficiently activated”. On the same count and under the same terms, for `CCCCCCCCCCN(C)c1cc(CO)cc(NC(C)=O)c1` [ADMB, 3-(N-acetylamino)-5(N-decyl-N-methylamino) benzyl alcohol, reference compound] the value was “efficiently activated”; for `CCCCCCCCCCNc1cc(CO)c2cc[nH]c2c1` [DHI, 6-(N-decylamino)-4-hydroxymethylindole, reference compound], “efficiently activated”.

Consider `CC1=CC23C(=O)C(C=C(COC(=O)c4ccccc4)C(O)C2(O)C1OC(=O)c1ccccc1)C1C(CC3C)C1(C)C` (stereo not drawn) [ID, ingenol 3,20-dibenzoate, reference compound], for which the “activation of PKC alpha in vitro” value in the assay with bovine PKC alpha is “efficiently activated”. For `CCCCCCCCCCCCCC(=O)O[C@@H]1[C@@H](C)[C@@]2(O)[C@@H](C=C(CO)C[C@]3(O)C(=O)C(C)=C[C@@H]23)[C@@H]2C(C)(C)[C@]12OC(C)=O` [PMA, phorbol-12-myristate-13-acetate, reference compound], the “response of wild-type yeast cells (doubling time, colony size)” value in assay [1] is reported as “did not respond”. Besides, the “activation of PKC alpha in vitro” value in the assay on bovine PKC alpha was “efficiently activated”. In the case of `CN(C)c1ccc2cc3ccc(N(C)C)cc3nc2c1` [acridine orange, reference compound], in the assay on bovine PKC alpha, the “inhibition” value is listed as “efficiently inhibited”. As for `COc1ccc2c(c[n+](C)c3c4cc5c(cc4ccc23)OCO5)c1OC` [chelerythrine, reference compound], in the assay on bovine PKC alpha, the “inhibition” value is “efficiently inhibited”. As for `CC1=C[C@H]2[C@@]3(O)[C@H](C)C[C@]4(OC(=O)Cc5ccccc5)[C@H]([C@@H]3C=C(CO)C[C@]2(O)C1=O)C4(C)C` [dPP, 12-deoxyphorbol 1 3-phenylacetate, reference compound], the “activation of PKC alpha in vitro” value with bovine PKC alpha is listed as “efficiently activated”. As to `Cc1cc(N)c2ccccc2[n+]1CCCCCCCCCC[n+]1c(C)cc(N)c2ccccc21` [dequalinium, reference compound], the “inhibition” value in the assay with bovine PKC alpha is given as “efficiently inhibited”. Regarding `C=C(C)C12OC3(c4ccccc4)OC1C1C4OC4(CO)C(O)C4(O)C(=O)C(C)=CC4C1(O3)C(C)C2OC(=O)/C=C/C=C/c1ccccc1` (stereo not drawn) [mezerein, reference compound], the “activation of PKC alpha in vitro” value in the assay on bovine PKC alpha was “efficiently activated”. In the case of `CCCCCCCCCCCCC/C=C/[C@@H](O)[C@@H](N)CO[C@@H]1O[C@H](CO)[C@H](O)[C@H](O)[C@H]1O` [psychosine, reference compound], the “inhibition” value with bovine PKC alpha is reported as “efficiently inhibited”.

As to `CN1CCN(CCCN2c3ccccc3Sc3ccc(C(F)(F)F)cc32)CC1` [trifluoperazine, reference compound], the “inhibition” value in the assay on bovine PKC alpha was “efficiently inhibited”. On to “CD96: PKC alpha deletion mutant lacking 96 carboxyl terminal aa”, for which, in the assay on bovine PKC alpha, the “PMA and Ca^2+ stimulated mutant PKC activity: Ca^2+” value is on record as “-”; the “PMA and Ca^2+ stimulated mutant PKC activity: PMA” value is on record as “-”; the “PMA and Ca^2+ stimulated mutant PKC activity: -” value was “-”.

For “CD110: PKC alpha deletion mutant lacking 110 carboxyl terminal aa”, in the assay on bovine PKC alpha, the “PMA and Ca^2+ stimulated mutant PKC activity: Ca^2+” value is reported as “-”; the “PMA and Ca^2+ stimulated mutant PKC activity: PMA” value was “-”; the “PMA and Ca^2+ stimulated mutant PKC activity: -” value is reported as “-”. With “CD139: PKC alpha deletion mutant lacking 139 carboxyl terminal aa”, in the assay with bovine PKC alpha, the “PMA and Ca^2+ stimulated mutant PKC activity: Ca^2+” value is on record as “-”; the “PMA and Ca^2+ stimulated mutant PKC activity: PMA” value is recorded as “-”; the “PMA and Ca^2+ stimulated mutant PKC activity: -” value is “-”. As to “CD149: PKC alpha deletion mutant lacking 149 carboxyl terminal aa”, in the assay on bovine PKC alpha, the “PMA and Ca^2+ stimulated mutant PKC activity: Ca^2+” value is “-”; the “PMA and Ca^2+ stimulated mutant PKC activity: PMA” value is given as “-”; the “PMA and Ca^2+ stimulated mutant PKC activity: -” value is on record as “-”. Regarding “ND84: PKC alpha deletion mutant lacking 84 amino terminal aa”, in the assay on bovine PKC alpha, the “PMA and Ca^2+ stimulated mutant PKC activity: Ca^2+” value is reported as “++”; the “PMA and Ca^2+ stimulated mutant PKC activity: PMA” value is given as “+”; the “PMA and Ca^2+ stimulated mutant PKC activity: -” value was “+”.

“ND158: PKC alpha deletion mutant lacking 158 amino terminal aa”: in the assay with bovine PKC alpha, the “PMA and Ca^2+ stimulated mutant PKC activity: Ca^2+” value is “++”; the “PMA and Ca^2+ stimulated mutant PKC activity: PMA” value is “+”; the “PMA and Ca^2+ stimulated mutant PKC activity: -” value is “+”. For the molecule “ND188: PKC alpha deletion mutant lacking 118 amino terminal aa (printed ND188 in Table 1)”, in the assay on bovine PKC alpha, the “PMA and Ca^2+ stimulated mutant PKC activity: Ca^2+” value is recorded as “++”; the “PMA and Ca^2+ stimulated mutant PKC activity: PMA” value is reported as “+”; the “PMA and Ca^2+ stimulated mutant PKC activity: -” value is “+”. Regarding “ND 140: PKC alpha deletion mutant lacking 140 amino terminal aa”, in the assay on bovine PKC alpha, the “PMA and Ca^2+ stimulated mutant PKC activity: Ca^2+” value was “++”; the “PMA and Ca^2+ stimulated mutant PKC activity: PMA” value was “+”; the “PMA and Ca^2+ stimulated mutant PKC activity: -” value is reported as “+”. Turning to polymyxin B [reference compound], in the assay on bovine PKC alpha, the “inhibition” value is listed as “efficiently inhibited”.
